Target: T1, TLR8 (Homo sapiens, UniProt Q9NR97)
T1 construct: host or cells: HEK293 (HEK-BLUE-hTLR8)
T1 sequence (Q9NR97 27-1041): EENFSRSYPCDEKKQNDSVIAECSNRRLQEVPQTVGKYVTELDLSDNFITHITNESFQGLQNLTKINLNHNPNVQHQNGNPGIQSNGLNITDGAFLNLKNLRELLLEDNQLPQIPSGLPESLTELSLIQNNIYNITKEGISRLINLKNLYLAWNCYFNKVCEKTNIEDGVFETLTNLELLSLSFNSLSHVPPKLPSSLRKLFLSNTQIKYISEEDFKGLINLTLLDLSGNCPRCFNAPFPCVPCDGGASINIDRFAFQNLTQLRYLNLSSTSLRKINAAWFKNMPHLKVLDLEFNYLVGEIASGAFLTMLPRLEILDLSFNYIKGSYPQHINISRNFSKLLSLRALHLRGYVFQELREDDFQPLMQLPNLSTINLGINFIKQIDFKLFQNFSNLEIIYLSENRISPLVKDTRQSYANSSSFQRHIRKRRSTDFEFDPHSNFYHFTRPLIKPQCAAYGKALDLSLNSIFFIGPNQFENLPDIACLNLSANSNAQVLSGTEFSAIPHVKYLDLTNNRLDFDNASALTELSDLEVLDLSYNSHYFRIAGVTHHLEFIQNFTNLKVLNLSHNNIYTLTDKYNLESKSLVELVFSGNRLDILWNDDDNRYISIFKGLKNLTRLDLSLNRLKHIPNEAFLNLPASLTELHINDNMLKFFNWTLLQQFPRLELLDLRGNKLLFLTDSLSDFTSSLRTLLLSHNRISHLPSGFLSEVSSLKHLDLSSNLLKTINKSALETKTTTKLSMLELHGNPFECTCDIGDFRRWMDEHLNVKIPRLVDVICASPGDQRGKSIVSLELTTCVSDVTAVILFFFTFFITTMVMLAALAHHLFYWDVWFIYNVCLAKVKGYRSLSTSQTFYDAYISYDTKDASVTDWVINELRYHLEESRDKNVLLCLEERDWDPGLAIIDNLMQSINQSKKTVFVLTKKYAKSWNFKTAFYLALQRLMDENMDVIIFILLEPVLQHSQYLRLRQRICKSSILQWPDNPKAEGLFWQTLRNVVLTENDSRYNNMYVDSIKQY
Experiment: TLR8 cell based assay (HEK-BLUE-hTLR8, SEAP reporter linked to NF-κB activation)
Details: HEK-BLUE-hTLR8 cells
Description: In this assay, the bioactivity of compound of formula Iw as measured using a cell based assay. The assay was performed in human embryonic kidney cells (HEK293) expressing TLR8 or other TLR family members such as TLR4, TLR7 and TLR9 (for selectivity screens). The activity of specific TLR agonists was assessed using the secretory embryonic alkaline phosphatase (SEAP) reporter gene that is linked to NF-κB activation in response to TLR stimulation. The SEAP activity was measured using the Quanti-Blue substrate (InvivoGen) after TLR agonist treatment.
The detailed experimental method is as follow:
HEK-BLUE-hTLR8 cell line was purchased from InvivoGen. The cells were cultured in Dulbecco's Modified Eagle's Media containing 4.5 g/L […] (Sigma-Aldrich) and 10% FBS. The cells were cultured at 37° C., 95% humidity and 5% CO2.
Test concentrations of the compounds ranged from 0.5 nM to 15 μM with 10 points. A known TLR8 agonist was added as positive control and 1 μl of DMSO was added as negative control.
The cells were prepared as follows: The cells were removed from the incubator and growth medium was discarded. The cells were gently rinsed with pre-warmed 10 ml PBS for a T-150 flask. 12 ml pre-warmed growth medium was added, and the cells were detached by tapping the flask. Cell clumps were dissociated by gently pipetting up and down. The cells were counted. Single cell suspension was prepared at 200,000 cells per ml in growth medium and 200 μl of the cell suspension (40,000 cells per well) were immediately added to each well of the plate. The final DMSO concentration of each well was 0.5%.
The cells were cultured and treated with the compounds at 37° C., 5% CO2 for 24 h.
20 μL of the supernatant of each well were added to 180 μL of QUANTI-Blue, and the plates were incubated at 37° C. for 1.5 hour. Optical density was measured using a spectrophotometer at 650 nm (OD data). Activivation was calculated by using the equation below: Activivation %=(Compound OD mean value−DMSO OD mean value)/(positive control OD mean value−DMSO OD mean value)×100
The data were analyzed using the GraphPad to get EC50 values and fitting dose response curves of the compounds.

[1] = 24 h treatment, SEAP/QUANTI-Blue readout

Row | SMILES | EC50 [1] | EC50 (bound stated)
1 | CCCN(CCC)C(=O)C1=Cc2ccc(-c3ccc4c(=O)n(CCn5cccn5)ncc4c3)cc2N=C(N)C1 [Compound 1-8-13] | < 100 nM | 
2 | CCCN(CCC)C(=O)C1=Cc2ccc(-c3ccc4c(c3)CN(CC)C4=O)cc2N=C(N)C1 [Compound 1-3-1] | < 100 nM | 
3 | CCCN(CCO)C(=O)C1=Cc2ccc(-c3ccc4c(=O)n(CC(N)=O)ccc4c3)cc2N=C(N)C1 [Compound 1-12-1] | 100 to 1000 nM | 
4 | CCCN(CCC)C(=O)C1=Cc2ccc(-c3ccc4c(=O)n(Cc5nc(OC)cc(OC)n5)ncc4c3)cc2N=C(N)C1 [Compound 1-8-21] | < 100 nM | 
5 | CCCN(CCC)C(=O)C1=Cc2ccc(-c3cc4c(=O)n(CC)ccc4s3)cc2N=C(N)C1 [Compound 1-5-2] | 1000 to 10000 nM | 
6 | CCCN(CCC)C(=O)C1=Cc2ccc(-c3ccc4c(=O)n(Cc5cc[nH]n5)ccc4c3)cc2N=C(N)C1 [Compound 1-2-34] | < 100 nM | 
7 | CCCN(CCC)C(=O)C1=Cc2ccc(-c3ccc4c(=O)n(CC)c(C)cc4c3)cc2N=C(N)C1 [Compound 1-2-2] | 100 to 1000 nM | 
8 | CCCN(CCC)C(=O)C1=Cc2ccc(-c3ccc4c(=O)n(CCc5cnccn5)ccc4c3)cc2N=C(N)C1 [Compound 1-2-47] | 100 to 1000 nM | 
9 | CCCN(CCC)C(=O)C1=Cc2c(F)cc(-c3ccc4c(=O)n(CCS(C)(=O)=O)ccc4c3)cc2N=C(N)C1 [Compound 1-10-4] | < 100 nM | 
10 | CCCN(CCC)C(=O)C1=Cc2c(F)cc(-c3ccc4c(=O)n(CC(=O)NCC)ccc4c3)cc2N=C(N)C1 [Compound 1-10-7] | < 100 nM | 
11 | CCCN(CCC)C(=O)C1=Cc2ccc(-c3ccc4c(=O)n(CCNS(C)(=O)=O)c(=O)n(C)c4c3)cc2N=C(N)C1 [Compound 1-9-6] | < 100 nM | 
12 | CCCN(CCC)C(=O)C1=Cc2ccc(-c3ccc4c(=S)n(Cc5cnccn5)ncc4c3)cc2N=C(N)C1 [Compound 1-14-6] | < 100 nM | 
13 | CCCN(CCC)C(=O)C1=Cc2ccc(-c3ccc4c(=O)n(Cc5nccn5C(C)C)ccc4c3)cc2N=C(N)C1 [Compound 1-2-49] | < 100 nM | 
14 | CCCN(CCC)C(=O)C1=Cc2ccc(-c3ccc4c(=O)n(Cc5nc(C)cc(C)n5)ncc4c3)cc2N=C(N)C1 [Compound 1-8-17] | < 100 nM | < 10 nM
15 | CCCN(CCC)C(=O)C1=Cc2ccc(-c3ccc4c(=O)n(CCN(C)C)ccc4c3)cc2N=C(N)C1 [Compound 1-2-12] | 100 to 1000 nM | 
16 | CCCN(CCC)C(=O)C1=Cc2ccc(-c3ccc4c(=O)n(CCP(=O)(OCC)OCC)ncc4c3)cc2N=C(N)C1 [Compound 1-8-14] | < 100 nM | 
17 | CCCN(CCC)C(=O)C1=Cc2ccc(-c3ccc4ccn(CCO)c(=O)c4c3)cc2N=C(N)C1 [Compound 1-2-51] | 1000 to 10000 nM | 
18 | CCCN(CCC)C(=O)C1=Cc2c(F)cc(-c3ccc4c(=O)n(CC(=O)NC)c(=O)n(C)c4c3)cc2N=C(N)C1 [Compound 1-10-5] | < 100 nM | 
19 | CCCN(CCC)C(=O)C1=Cc2ccc(-c3ccc4c(=O)n(CCC(N)=O)ncc4c3)cc2N=C(N)C1 [Compound 1-8-7] | < 100 nM | 
20 | CCCN(CCC)C(=O)C1=Cc2ccc(-c3ccc4c(=S)n(Cc5ncccn5)ncc4c3)cc2N=C(N)C1 [Compound 1-14-1] | < 100 nM | < 10 nM

Further lines, results first:

Row | EC50 [1] | EC50 (bound stated) | SMILES
21 | < 100 nM |  | CCCN(CCC)C(=O)C1=Cc2ccc(-c3ccc4c(=S)n(Cc5cnccn5)ccc4c3)cc2N=C(N)C1 [Compound 1-14-5]
22 | 1000 to 10000 nM |  | CCCN(CCC)C(=O)C1=Cc2ccc(-c3cc4c(=O)n(CC)ccc4n3C)cc2N=C(N)C1 [Compound 1-5-1]
23 | < 100 nM |  | CCCN(CCC)C(=O)C1=Cc2ccc(-c3ccc4c(=O)n(Cc5nc(OC)cc(OC)n5)ccc4c3)cc2N=C(N)C1 [Compound 1-2-46]
24 | 100 to 1000 nM |  | CCCCn1ccc2cc(-c3ccc4c(c3)N=C(N)CC(C(=O)N(CCC)CCC)=C4)ccc2c1=O [Compound 1-2-27]
25 | 100 to 1000 nM |  | CCCN(CCC)C(=O)C1=Cc2ccc(-c3ccc4c(=O)n(CC)ccc4c3)cc2N=C(N)C1 [Compound 1-2-3]
26 | 100 to 1000 nM |  | CCCN(CCC)C(=O)C1=Cc2ccc(-c3ccc4c(=O)n(CC(N)=O)cnc4c3)cc2N=C(N)C1 [Compound 1-7-1]
27 | 100 to 1000 nM |  | CCCN(CCC)C(=O)C1=Cc2ccc(-c3ccc4c(n3)CN(CCO)C4=O)cc2N=C(N)C1 [Compound 1-6-2]
28 | 100 to 1000 nM |  | CCCN(CCC)C(=O)C1=Cc2ccc(-c3ccc4c(=O)n(Cc5ccno5)ccc4c3)cc2N=C(N)C1 [Compound 1-2-29]
29 | 100 to 1000 nM |  | CCCN(CCC)C(=O)C1=Cc2c(cc(-c3ccc4c(=O)n(CCS(C)(=O)=O)ncc4c3)cc2OC)N=C(N)C1 [Compound 2-2-1]
30 | 100 to 1000 nM |  | CCCN(CCC)C(=O)C1=Cc2ccc(-c3ccc4c(=O)n(CCCO)ccc4c3)cc2N=C(N)C1 [Compound 1-2-7]
31 | 100 to 1000 nM |  | CCCN(CCC)C(=O)C1=Cc2ccc(-c3ccc4c(=O)n(CC(C)C)ccc4c3)cc2N=C(N)C1 [Compound 1-2-5]
32 | < 100 nM |  | CCCN(CCC)C(=O)C1=Cc2ccc(-c3ccc4c(=O)n(Cc5nccs5)ncc4c3)cc2N=C(N)C1 [Compound 1-8-10]
33 | 100 to 1000 nM |  | CCCN(CCC)C(=O)C1=Cc2ccc(-c3ccc4c(=O)n(CC(N)=O)c(=O)n(C)c4c3)cc2N=C(N)C1 [Compound 1-9-3]
34 | < 100 nM |  | CCCN(CCC)C(=O)C1=Cc2ccc(-c3ccc4c(=O)n(CC(=O)N(C)C)ccc4c3)cc2N=C(N)C1 [Compound 1-2-24]
35 | < 100 nM |  | CCCN(CCC)C(=O)C1=Cc2ccc(-c3ccc4c(=O)n(Cc5nnc(C)o5)ccc4c3)cc2N=C(N)C1 [Compound 1-2-30]
36 | < 100 nM | < 10 nM | CCCN(CCC)C(=O)C1=Cc2ccc(-c3ccc4c(=S)n(CCS(C)(=O)=O)ncc4c3)cc2N=C(N)C1 [Compound 1-14-2]
37 | < 100 nM |  | CCCN(CCC)C(=O)C1=Cc2ccc(-c3ccc4c(=O)n(Cc5cnccn5)ccc4c3)cc2N=C(N)C1 [Compound 1-2-44]
38 | < 100 nM |  | CCCN(CCC)C(=O)C1=Cc2ccc(-c3ccc4c(=O)n(CC(=O)N5CCCC5)ccc4c3)cc2N=C(N)C1 [Compound 1-2-26]
39 | 100 to 1000 nM |  | CCCN(CCC)C(=O)C1=Cc2ccc(-c3cnc4c(c3)CN(CCO)C4=O)cc2N=C(N)C1 [Compound 1-6-1]
40 | 100 to 1000 nM |  | CCCN(CCC)C(=O)C1=Cc2c(Cl)cc(-c3ccc4c(=O)n(CCS(C)(=O)=O)ncc4c3)cc2N=C(N)C1 [Compound 2-2-3]
41 | 1000 to 10000 nM |  | CCCN(CCC)C(=O)C1=Cc2ccc(-c3ccc4c(=O)n(CC(=O)O)ccc4c3)cc2N=C(N)C1 [Compound 1-2-42]
42 | < 100 nM |  | CCCN(CCC)C(=O)C1=Cc2ccc(-c3ccc4c(=O)n(CCNS(C)(=O)=O)ncc4c3)cc2N=C(N)C1 [Compound 1-8-8]
43 | < 100 nM | < 10 nM | CCCN(CCC)C(=O)C1=Cc2ccc(-c3ccc4c(=O)n(CCOC)ncc4c3)cc2N=C(N)C1 [Compound 1-8-9]
44 | < 100 nM |  | CCCN(CCC)C(=O)C1=Cc2ccc(-c3ccc4c(=O)n(CCn5ccnc5)ccc4c3)cc2N=C(N)C1 [Compound 1-2-37]
45 | < 100 nM | < 10 nM | [2H]c1cc(-c2ccc3c(=O)n(CCS(C)(=O)=O)ncc3c2)cc2c1C=C(C(=O)N(CCC)CCC)CC(N)=N2 [Compound 2-2-4]
46 | < 100 nM |  | CCCN(CCC)C(=O)C1=Cc2ccc(-c3ccc4c(=O)n(CC(=O)NC)cnc4c3)cc2N=C(N)C1 [Compound 1-7-3]
